US6737383B1, “Herbicidal oxadiazolidines” (priority 1999, dated 2004)

Columns and labels:
[1] = system: corn; test: Test B pre/postemergence corn; format: in vivo, Zea mays
Outline: (§1)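 Response is a visual 0-to-10 score relative to untreated plants, where 0 means no effect and 10 means complete control, taken twelve to sixteen days after application. Treatments went onto soil at planting and onto foliage of 1- to 4-leaf plants, using a surfactant-containing non-phytotoxic solvent.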

[2] = system: wheat; test: Test B pre/postemergence wheat; format: in vivo, Triticum aestivum
Outline: as §1

[3] = system: duck salad; test: Test B flood test duck salad; format: in vivo, Heteranthera limosa
Outline: (§2)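 Each value is a visual injury score relative to controls, with 10 meaning complete control and 0 no effect. Evaluation took place twelve to sixteen days after the 2-leaf-stage plants were treated and kept in the greenhouse.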

[4] = system: sugar beet; test: Test B pre/postemergence sugar beet; format: in vivo, Beta vulgaris
Outline: as §1

[5] = system: soybean; test: Test B pre/postemergence soybean; format: in vivo, Glycine max
Outline: as §1

[6] = system: velvetleaf; test: Test B pre/postemergence velvetleaf; format: in vivo, Abutilon theophrasti
Outline: as §1

[7] = system: crabgrass; test: Test B pre/postemergence crabgrass; format: in vivo, Digitaria sanguinalis
Outline: as §1

[8] = system: rape; test: Test B pre/postemergence rape; format: in vivo, Brassica napus
Outline: as §1

[9] = system: morningglory; test: Test B pre/postemergence morningglory; format: in vivo, Ipomoea hederacea
Outline: as §1

[10] = system: pigweed; test: Test B pre/postemergence pigweed; format: in vivo, Amaranthus retroflexus
Outline: as §1

[11] = system: rice; test: Test B flood test rice; format: in vivo, Oryza sativa; settings: for Rice plant response rating: Postemergence section (flood test species)
Outline: as §2

[12] = system: cocklebur; test: Test B pre/postemergence cocklebur; format: in vivo, Xanthium strumarium
Outline: as §1

[13] = system: wild oat; test: Test B pre/postemergence wild oat; format: in vivo, Avena fatua
Outline: as §1

[14] = system: purple nutsedge; test: Test B pre/postemergence purple nutsedge; format: in vivo, Cyperus rotundus
Outline: as §1

[15] = system: giant foxtail; test: Test B pre/postemergence giant foxtail; format: in vivo, Setaria faberii
Outline: as §1

[16] = system: smallflower flatsedge; test: Test B flood test smallflower flatsedge; format: in vivo, Cyperus difformis; settings: for S. Flatsedge plant response rating: Postemergence section (flood test species)
Outline: as §2

[17] = Postemergence, Rate 250 g/ha, scale 0 to 10, 0 is no effect, 10 is complete control
[18] = Postemergence, Rate 500 g/ha, scale of 0 to 10 where 0 is no effect and 10 is complete control
[19] = Preemergence, Rate 62 g/ha, scale 0 to 10 (0 no effect, 10 complete control)
[20] = Preemergence, Rate 125 g/ha, scale of 0 to 10 where 0 is no effect and 10 is complete control
[21] = Preemergence, Rate 250 g/ha, scale 0 to 10, 0 is no effect, 10 is complete control
[22] = Preemergence, Rate 500 g/ha, scale 0 to 10, 0 is no effect, 10 is complete control
[23] = Rate 62 g/ha, Postemergence, scale of 0 to 10 where 0 is no effect and 10 is complete control
[24] = Rate 125 g/ha, Postemergence, scale 0 to 10, 0 is no effect, 10 is complete control
[25] = flood test species, listed under Postemergence, Rate 250 g/ha, scale 0 to 10, 0 is no effect, 10 is complete control
[26] = Rate 500 g/ha, scale of 0 to 10 where 0 is no effect and 10 is complete control
[27] = Rate 125 g/ha, scale 0 to 10, 0 is no effect, 10 is complete control

CC(C)N(C(=O)n1oc(=O)n(C(CF)CF)c1=O)c1ccccc1 [Compound 421]
Plant response rating, Corn [1, 17]: 3 | Corn plant response rating [1, 18]: 7 | Plant response rating, Corn [1, 19]: 4 | Plant response rating, Corn [1, 20]: 5 | Corn plant response rating [1, 21]: 8 | Corn plant response rating [1, 22]: 8 | Corn plant response rating [1, 23]: 0 | Corn plant response rating [1, 24]: 0 | Wheat plant response rating [2, 18]: 7 | Plant response rating, Wheat [2, 19]: 4 | Plant response rating, Wheat [2, 20]: 4 | Wheat plant response rating [2, 21]: 7 | Wheat plant response rating [2, 22]: 9 | Wheat plant response rating [2, 24]: 1 | Ducksalad plant response rating ([3]; Postemergence section (flood test species), Rate 500 g/ha, scale of 0 to 10 where 0 is no effect and 10 is complete control): 2 | Ducksalad plant response rating ([3]; Rate 62 g/ha, Postemergence (flood test species), scale of 0 to 10 where 0 is no effect and 10 is complete control): 0 | Ducksalad plant response rating ([3]; Rate 125 g/ha, Postemergence section (flood test species), scale 0 to 10, 0 is no effect, 10 is complete control): 0 | Plant response rating, Ducksalad [3, 25]: 2 | Plant response rating, Sugarbeets [4, 17]: 3 | Sugarbeets plant response rating [4, 18]: 6 | Plant response rating, Sugarbeets [4, 19]: 8 | Plant response rating, Sugarbeets [4, 20]: 10 | Sugarbeets plant response rating [4, 21]: 10 | Sugarbeets plant response rating [4, 22]: 10 | Sugarbeets plant response rating [4, 24]: 0 | Plant response rating, Soybean [5, 17]: 7 | Soybean plant response rating [5, 18]: 8 | Plant response rating, Soybean [5, 19]: 4 | Plant response rating, Soybean [5, 20]: 4 | Soybean plant response rating [5, 21]: 5 | Soybean plant response rating [5, 22]: 10 | Soybean plant response rating [5, 24]: 6 | Plant response rating, Velvetleaf [6, 17]: 4 | Velvetleaf plant response rating [6, 18]: 7 | Plant response rating, Velvetleaf [6, 19]: 8 | Plant response rating, Velvetleaf [6, 20]: 9 | Velvetleaf plant response rating [6, 21]: 10 | Velvetleaf plant response rating [6, 22]: 10 | Velvetleaf plant response rating [6, 24]: 0 | Plant response rating, Crabgrass [7, 17]: 8 | Crabgrass plant response rating [7, 18]: 8 | Plant response rating, Crabgrass [7, 19]: 8 | Plant response rating, Crabgrass [7, 20]: 8 | Crabgrass plant response rating [7, 21]: 9 | Crabgrass plant response rating [7, 22]: 10 | Crabgrass plant response rating [7, 23]: 4 | Crabgrass plant response rating [7, 24]: 7 | Plant response rating, Rape [8, 17]: 3 | Rape plant response rating [8, 18]: 8 | Plant response rating, Rape [8, 19]: 8 | Plant response rating, Rape [8, 20]: 10 | Rape plant response rating [8, 21]: 10 | Rape plant response rating [8, 22]: 10 | Rape plant response rating [8, 24]: 0 | Plant response rating, Morningglory [9, 17]: 9 | Morningglory plant response rating [9, 18]: 10 | Plant response rating, Morningglory [9, 19]: 4 | Plant response rating, Morningglory [9, 20]: 6 | Morningglory plant response rating [9, 21]: 7 | Morningglory plant response rating [9, 22]: 8 | Morningglory plant response rating [9, 24]: 8 | Plant response rating, Redroot pigweed [10, 17]: 5 | Redroot pigweed plant response rating [10, 18]: 8 | Plant response rating, Redroot pigweed [10, 19]: 8 | Plant response rating, Redroot pigweed [10, 20]: 10 | Redroot pigweed plant response rating [10, 21]: 10 | Redroot pigweed plant response rating [10, 22]: 10 | Redroot pigweed plant response rating [10, 24]: 2 | Rice plant response rating [11, 26]: 2 | Rice plant response rating [11, 27]: 0 | Plant response rating, Rice [11, 25]: 2 | Plant response rating, Cocklebur [12, 17]: 1 | Cocklebur plant response rating [12, 18]: 6 | Plant response rating, Cocklebur [12, 19]: 0 | Plant response rating, Cocklebur [12, 20]: 0 | Cocklebur plant response rating [12, 22]: 0 | Cocklebur plant response rating [12, 23]: 0 | Cocklebur plant response rating [12, 24]: 0 | Wild oats plant response rating [13, 18]: 8 | Plant response rating, Wild oats [13, 19]: 6 | Plant response rating, Wild oats [13, 20]: 7 | Wild oats plant response rating [13, 21]: 10 | Wild oats plant response rating [13, 22]: 10 | Wild oats plant response rating [13, 24]: 0 | Plant response rating, Nutsedge [14, 17]: 0 | Nutsedge plant response rating [14, 18]: 2 | Plant response rating, Nutsedge [14, 19]: 0 | Plant response rating, Nutsedge [14, 20]: 0 | Nutsedge plant response rating [14, 21]: 0 | Nutsedge plant response rating [14, 22]: 0 | Nutsedge plant response rating [14, 24]: 0 | Plant response rating, Giant foxtail [15, 17]: 9 | Giant foxtail plant response rating [15, 18]: 9 | Plant response rating, Giant foxtail [15, 19]: 9 | Plant response rating, Giant foxtail [15, 20]: 10 | Giant foxtail plant response rating [15, 21]: 10 | Giant foxtail plant response rating [15, 22]: 10 | Giant foxtail plant response rating [15, 23]: 8 | Giant foxtail plant response rating [15, 24]: 9 | S. Flatsedge plant response rating [16, 26]: 0 | S. Flatsedge plant response rating [16, 27]: 0 | Plant response rating, S. Flatsedge [16, 25]: 0
